Reference: US20030157516A1, “G protein coupled receptor” (priority 2000, published 2003)
Several values for one entry are separate records, joined by “and”; a condition that tells them apart may be missing. Identical values can stand only once.

What was measured:
[1] = test system: C6 glioma; experiment: Preliminary [3H]adenine binding on wild-type cells
Procedure: (§1) A) Methods—[3H]Adenine binding experiments were performed to characterize wild type cell lines before transfection as well as transiently and permanently transfected cell lines. Membranes were thawed on ice and diluted in 50 mM HEPES buffer, pH 7.4 supplemented with 10 mM MgCl2 and 1 mM EGTA. […] Both assays were carried out in a final volume of 500 μl, using 18 μg of membrane protein for the transfected CHO cells and 30 μg of membrane protein for the wild type CHO cells for the saturation binding. For competition binding experiments, 15 and 50 μg of membrane protein was used for the transfected and wild type cells, respectively. The reaction was terminated by rapid filtration through Whatman GF/B filters using a Brandel multi-channel cell harvester (96 wells). The filters were washed three times with 3 ml ice cold 50 mM HEPES buffer, pH 7.4, transferred to liquid scintillation vials and 3 ml of scintillation fluid (Ultima Gold MV, Packard, Netherlands) was added. Samples were counted in a β-scintillation counter after at least 6 hours to permit the glass fiber filters to become uniformly translucent.
(§2) The assay conditions were identical to those for the transfected cells.

[2] = test system: CHO; experiment: Preliminary [3H]adenine binding on wild-type cells; conditions: pool 1 and pool 2
Procedure: as §1, §2

[3] = test system: Cos7; experiment: Preliminary [3H]adenine binding on wild-type cells
Procedure: as §1, §2

[4] = test system: HEK293; experiment: Preliminary [3H]adenine binding on wild-type cells
Procedure: as §1, §2

[5] = test system: NIH3T3; experiment: Preliminary [3H]adenine binding on wild-type cells
Procedure: as §1, §2

[6] = target: T1, adenine binding rat receptor (Rattus norvegicus, UniProt Q7TN49); experiment: [3H]adenine saturation binding on CHO membranes transiently transfected; conditions: transfected cells
T1 construct: expressed in transfected cells; host or cells: CHO cells, transient, lipofectamine PLUS
T1 sequence (Q7TN49 1-304): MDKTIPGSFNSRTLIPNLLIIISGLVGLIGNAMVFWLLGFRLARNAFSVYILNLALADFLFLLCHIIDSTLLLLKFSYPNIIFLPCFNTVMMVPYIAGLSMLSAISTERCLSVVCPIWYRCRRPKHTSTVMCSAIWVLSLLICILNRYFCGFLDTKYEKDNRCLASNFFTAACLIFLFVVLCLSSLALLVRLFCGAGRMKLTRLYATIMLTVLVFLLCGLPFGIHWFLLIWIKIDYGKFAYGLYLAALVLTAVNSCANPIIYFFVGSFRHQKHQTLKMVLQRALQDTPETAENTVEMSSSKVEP
Procedure: (§3) The membranes were prepared as total particulate fractions. The cell lines were cultured to 906 confluency on 145 mm petri dishes and treated with 5 mM sodium butyrate, 24 hours before collection. The culturing medium was removed and the cells were washed twice with ice cold phosphate buffered saline (PBS without Ca^2+ and Mg^2+), scraped from the plates in 50 mM Tris-HCl buffer, pH 7.4, and collected by centrifugation (10 minutes at 16,000 RPM at 4° C.). The cell pellet was re-suspended in hypotonic 5 mM Tris-HCl buffer, pH 7.4, and homogenized with an Ultra Turrax homogenizer (Janker Kunkel, Germany). The homogenate was centrifuged at 18,000 RPM for 20 minutes at 4° C. The final pellet was re-suspended in 50 mM Tris-HCl buffer, pH 7.4 and stored in aliquots at −70° C. A protein determination was performed using the Bradford protein assay (Biorad, Germany) using bovine serum albumin (BSA) as standard.
as §1
Addition of Gpp-NHp blocks the high-affinity or agonist binding sites of GPCRs, so that only low-affinity sites are available.

[7] = test system: wild type CHO cells; experiment: [3H]adenine saturation binding on wild type CHO membranes; conditions: mean n=3
Procedure: as §3
A) Methods—[3H]Adenine binding experiments were performed to characterize wild type cell lines before transfection as well as transiently and permanently transfected cell lines. Membranes were thawed on ice and diluted in 50 mM HEPES buffer, pH 7.4 supplemented with 10 mM MgCl2 and 1 mM EGTA. […] Samples were counted in a β-scintillation counter after at least 6 hours to permit the glass fiber filters to become uniformly translucent. […]

[8] = target: T2, adenine binding GPCR (Rattus norvegicus, UniProt Q7TN49); experiment: FLIPR Ca2+ transient assay, antagonism of 30 nM adenine challenge; type: cell-based; conditions: 15 minutes incubation with compound (30 μM to 30 pM), then challenge with 30 nM adenine
T2 construct: The full length reading frame was inserted into the mammalian expression vector pcDNA3; expressed in transfected cells; host or cells: HEK293 cells stably transfected with pLEC/Gqi or pLEC/Gqo
T2 sequence (Q7TN49 1-304): T1 sequence (Q7TN49 1-304)
Excerpt: (§4) The full length reading frame was inserted into the mammalian expression vector pcDNA3 (Invitrogen, Carlsbad, Calif., U.S.A.) and the resulting expression construct was transiently transfected with the FuGENE 6 reagent (Roche Molecular Biochemicals, Mannheim, Germany) into HEK293 cells stably transfected (E. Bender, unpublished) with pLEC/Gqi or pLEC/Gqo (Molecular Devices, Sunnyvale, Calif., U.S.A.). The cells were loaded with Fluo-4 (Molecular Probes, Eugene, Oreg., U.S.A.) according to the recommendations of the supplier.
After a 15 minutes incubation at room temperature, the same cells were challenged with 30 nM adenine, to detect antagonistic properties of molecules added in the first round of superfusion.

[9] = target: T1, adenine binding rat receptor; experiment: [3H]adenine competition binding on CHO membranes transiently transfected; conditions: transfected cells, 15 nM [3H]adenine
Procedure: as §3, §1

[10] = test system: wild type CHO cells; experiment: [3H]adenine competition binding on wild type CHO membranes; conditions: 15 nM [3H]adenine
Procedure: as §3, with “The cell lines were cultured to 906 confluency on 145 mm petri dishes and treated with 5 mM sodium butyrate, 24 hours before collection.” left out
as §1, with “Membranes” for “A) Methods—[3H]Adenine binding experiments were performed to characterize wild type cell lines before transfection as well as transiently and permanently transfected cell lines. Membranes”

[11] = target: T3, rat adenine binding GPCR (Rattus norvegicus, UniProt Q7TN49); experiment: FLIPR Ca2+ transient assay, agonism, HEK293/Gq chimera cells transiently transfected with rat adenine binding GPCR/pcDNA3; type: cell-based; parameters: The full length reading frame was inserted into the mammalian expression vector pcDNA3; expressed in transfected cells; host or cells: HEK293 cells stably transfected with pLEC/Gqi or pLEC/Gqo; conditions: for agonistic effects on Ca2+ transients: concentrations ranging from 30 μM to 30 pM
T3 sequence (Q7TN49 1-304): T1 sequence (Q7TN49 1-304)
Excerpt: This assay is based around an instrument called a FLuorescence Imaging Plate Reader ((FLIPR®), Molecular Devices Corporation). In its most common configuration, it excites and measures fluorescence emitted by fluorescein-based dyes. It uses an argon-ion laser to produce high power excitation at 488 nm of a fluorophore, a system of optics to rapidly scan the over the bottom of a 96-/384-well plate and a sensitive, cooled CCD camera to capture the emitted fluorescence. It also contains a 96-/384-well pipetting head allowing the instrument to deliver solutions of test agents into the wells of a 96-/384-well plate. The FLIPR assay is designed to measure fluorescence signals from populations of cells before, during and after addition of compounds, in real time, from all 96-/384-wells simultaneously. […] As described below, calcium transients in cells transfected with adenine binding GPCR were measured using the FLIPR assay in order to measure activation of the receptors by various substrates in order to determine the natural ligand of the receptor.
as §4, with “supplier. […]” for “supplier.”
Using the FLIPR assay as above, calcium transients were measured in both sets of cells with the transients attributable to the novel GPCR measured as the difference between the two transients. Results are illustrated in FIG. 4. […]

[12] = test system: wild type CHO cells; experiment: cAMP measurements on wild type CHO cells; type: cell-based; conditions: wild type
Procedure: For permanently transfected CHO cells, cAMP measurements were performed using the indirect RIA kit from NEN (Belgium).
a) Methods: Two days before the experiment the cells were seeded out in a 96 well plate at a density required for approximately 90% confluence at the day of the experiment. After removal of the growth medium, the cells were washed twice with a controlled salt solution (CSS) containing 25 mM Tris-HCl, pH 7.4, 120 mM NaCl, 5.4 mM KCl, 0.8 mM MgCl2, 1.8 mM CaCl2, 15 mM glucose and 15 mg/l phenol red, with an addition of a phosphodiesterase inhibitor IBMX (3-isobutyl-1-methylxanthine) in a concentration of 1 mM and […]. Basal cAMP levels were determined in CSS containing these additives and maximally stimulated cAMP levels were determined in the presence of 50 μM forskolin. For testing agonistic activity, the compounds were incubated with the cells for 20 minutes at 37° C. The reaction was stopped by addition of ice cold HClO4 (1N) and stored at −20° C. After thawing the mixtures were neutralized with an equivalent amount of phosphate buffered KOH, left at 4° C. during 30 minutes to allow the salts to precipitate and centrifuged at 2,000 RPM for 5 minutes at 4° C.
For the quantitative determination of the cAMP levels, a 96-well Flashplate radioimmunoassay kit from NEN was used, according to the protocol of the supplier. The sigmoid concentration response curves (duplicate points) were analyzed using the GraphPad Prism program.

Compound | antagonistic effect [8] | pIC50 ([9]; mean of n experiments) | pIC50 ([9]; single experiments) | agonistic effects on Ca2+ transients [11] | IC50 ([9]; mean of n experiments) | IC50 ([9]; single experiments) | Ki ([9]; single experiments) | pIC50 ([10]; mean of n experiments) | pIC50 ([10]; single experiments) | further results
Nc1ncnc2nc[nH]c12 [[^3H]adenine] |  |  |  |  |  |  |  |  |  | [3H]adenine binding [1]: 839 fmoles/mg protein; [3H]adenine binding [2]: 303 fmoles/mg protein (pool 1) and 583 fmoles/mg protein (pool 2); [3H]adenine binding [3]: 226 fmoles/mg protein; [3H]adenine binding [4]: 168 fmoles/mg protein; [3H]adenine binding [5]: 642 fmoles/mg protein; average saturation binding levels [6]: around 19 pmol/mg; Bmax ([6]; 100 μM Gpp-NHp, mean n=3): 17341 fmoles/mg protein; Kd ([6]; 100 μM Gpp-NHp, mean n=3): 61 nM; Kd ([6]; 100 μM Gpp-NHp, single experiments): 57 nM and 72 nM and 54 nM; Bmax ([6]; No Gpp-NHp, mean n=3): 18894 fmoles/mg protein; Kd ([6]; No Gpp-NHp, mean n=3): 24 nM; Bmax ([6]; No Gpp-NHp, single experiments): 25375 fmoles/mg protein and 17569 fmoles/mg protein and 13738 fmoles/mg protein; Kd ([6]; No Gpp-NHp, single experiments): 23 nM and 25 nM; Kd ([7]; 100 μM Gpp-NHp): 16 nM; Kd ([7]; No Gpp-NHp): 26 nM
Nc1ncnc2c1ncn2[C@@H]1O[C@H](COP(=O)(O)OP(=O)(O)O)[C@@H](O)[C@H]1O [ADP] | did not elicit antagonistic effects | <4 | <4 | No further agonistic effects |  |  |  | <4 | <4 | 
C=C[C@@]1(C)CC(=O)[C@]2(O)[C@@]3(C)[C@@H](O)CCC(C)(C)[C@@H]3[C@H](O)[C@H](OC(C)=O)[C@@]2(C)O1 [forskolin] |  |  |  |  |  |  |  |  |  | cAMP level with Forskolin 50 μM ([12]; 0.5% hiFCS, induction): 25 pmol/well; cAMP level with Forskolin 50 μM ([12]; 0.5% hiFCS, no induction): 26 pmol/well; cAMP level with Forskolin 50 μM ([12]; 10% hiFCS, induction): 63 pmol/well; cAMP level with Forskolin 50 μM ([12]; 10% hiFCS, no induction): 107 pmol/well
Nc1ncnc2c1ncn2[C@@H]1O[C@H](COP(=O)(O)OP(=O)(O)OP(=O)(O)O)[C@@H](O)[C@H]1O [ATP] | did not elicit antagonistic effects | 4.07 | 4.02 and 4.18 | No further agonistic effects |  |  | 58.5 µM (2×) and 40.7 µM | <4 | <4 | Ki ([9]; mean of n experiments): 52.8 µM

Second part, led by results:

antagonistic effect [8] | pIC50 ([9]; mean of n experiments) | pIC50 ([9]; single experiments) | agonistic effects on Ca2+ transients [11] | IC50 ([9]; mean of n experiments) | IC50 ([9]; single experiments) | Ki ([9]; single experiments) | Compound | pIC50 ([10]; mean of n experiments) | pIC50 ([10]; single experiments) | further results
did not elicit antagonistic effects |  |  |  | ~100 µM | > 100 µM and 72.4 µM | 44.6 µM | Nc1ncnc2c1ncn2[C@@H]1O[C@H](CO)[C@@H](O)[C@H]1O [Adenosine, adenosine] | <4 | <4 | agonism of nucleoside and nucleotide derivatives of adenine ([11]; at high concentrations (>3.3 μM)): weak partial agonism
weak antagonistic effect |  |  | No further agonistic effects | > 100 µM | > 100 µM |  | Nc1nc2nc[nH]c2c(=O)[nH]1 [Guanine, guanine] | <4 | <4 | calcium transients elicited ([11]; HEK293/Gaqo cells, 3.3 μM): could not be elicited
